According to patent publication US20240158446A1, “CYCLIC COMPOUND HAVING SELECTIVE INHIBITORY ACTION ON KRAS OVER HRAS AND NRAS” (CHUGAI SEIYAKU KABUSHIKI KAISHA, priority 2021, published 2024):
Like-named read-outs stand apart in the source and are kept apart here. *1 amine or outer side, *2 acyl side, *3 side chain or, on linkers, in order; H or OH if unused. Where a SMILES comes first, the peptide text is derived from it. Bridges are numbered along the chain shown (N, C = ends). [ ]: non-standard residue; d: D form. The star is where a group is joined. hPhe(3-Cl-4-CF3) = N[C@@H](CCc1ccc(C(F)(F)F)c(Cl)c1)C(=O)O; NPrPhe(4-CF3) = CCCN[C@@H](Cc1ccc(C(F)(F)F)cc1)C(=O)O; NEtPhe(4-Me) = CCN[C@@H](Cc1ccc(C)cc1)C(=O)O; X43 = CCCN([C@@H](Cc1ccccc1)C(=O)[*:2])[*:1]; NMeGly(cPent) = CN[C@H](C(=O)O)C1CCCC1; Pro(4,4-F2) = O=C(O)[C@@H]1CC(F)(F)CN1; NMeD = CN[C@@H](CC(=O)O)C(=O)O; NMeL = CN[C@@H](CC(C)C)C(=O)O; Morpholide = C1CN(*)CCO1; NMeA = CN[C@@H](C)C(=O)O; Ac5c = NC1(C(=O)O)CCCC1; Aze = O=C(O)[C@@H]1CCN1; Sar = CNCC(=O)O

How the values were obtained:
[1] = target: GDP-bound KRAS wild-type protein (Homo sapiens, UniProt P01116); assay: Binding to KRAS by surface plasmon resonance (SPR), Single Cycle Kinetics; conditions: GDP-bound KRAS wild-type protein, read-out: KRAS KD
Chain of GDP-bound KRAS wild-type protein (P01116 whole entry): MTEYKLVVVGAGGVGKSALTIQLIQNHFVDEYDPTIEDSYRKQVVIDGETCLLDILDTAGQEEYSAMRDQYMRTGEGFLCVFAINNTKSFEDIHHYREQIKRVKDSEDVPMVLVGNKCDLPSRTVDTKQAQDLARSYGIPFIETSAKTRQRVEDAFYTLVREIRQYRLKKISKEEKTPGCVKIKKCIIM

[2] = target: GDP-bound NRAS wild-type protein (Homo sapiens, UniProt P01111); assay: Binding to NRAS by surface plasmon resonance (SPR), Single Cycle Kinetics
Chain of GDP-bound NRAS wild-type protein (P01111 whole entry): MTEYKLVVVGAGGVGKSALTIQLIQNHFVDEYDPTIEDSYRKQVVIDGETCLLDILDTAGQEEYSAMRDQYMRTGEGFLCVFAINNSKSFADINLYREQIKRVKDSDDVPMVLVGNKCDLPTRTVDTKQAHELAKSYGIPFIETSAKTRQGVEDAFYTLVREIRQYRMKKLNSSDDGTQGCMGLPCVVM

[3] = target: GDP-bound HRAS wild-type protein (Homo sapiens, UniProt P01112); assay: Binding to HRAS by surface plasmon resonance (SPR), Single Cycle Kinetics
Chain of GDP-bound HRAS wild-type protein (P01112 whole entry): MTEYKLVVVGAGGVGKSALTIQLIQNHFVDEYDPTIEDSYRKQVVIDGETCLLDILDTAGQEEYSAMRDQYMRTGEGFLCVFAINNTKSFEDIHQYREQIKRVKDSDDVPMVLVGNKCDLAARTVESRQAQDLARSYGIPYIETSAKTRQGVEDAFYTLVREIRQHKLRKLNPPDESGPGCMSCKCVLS

[4] = SPR Single Cycle Kinetics, 1:1 binding model
[5] = SPR, GDP-bound NRAS wild-type protein vs GDP-bound KRAS wild-type protein
[6] = SPR, GDP-bound HRAS wild-type protein vs GDP-bound KRAS wild-type protein
[7] = SPR, Single Cycle Kinetics, 1:1 binding model
[8] = SPR, GDP-bound NRAS wild-type protein vs GDP-bound KRAS wild-type protein, KD ratio class
[9] = SPR, GDP-bound HRAS wild-type protein vs GDP-bound KRAS wild-type protein, KD ratio class

Compound	Kd [1, 4] [pM]	NRAS/KRAS (ratio of KD value for NRAS to KD value for KRAS) [2, 5]	HRAS/KRAS (ratio of KD value for HRAS to KD value for KRAS) [3, 6]	Kd ([1]; SPR, Single Cycle Kinetics) [pM]	further results
CCCN1C(=O)CN(C)C(=O)[C@@H]2CCN2C(=O)[C@H]([C@@H](C)CC)NC(=O)[C@H](CC(C)C)N(C)C(=O)C[C@@H](C(=O)N(C)C)NC(=O)[C@H](C2CCCC2)N(C)C(=O)C2(CCCC2)NC(=O)[C@@H]2CC(F)(F)CN2C(=O)[C@H](CCc2ccc(C(F)(F)F)c(Cl)c2)NC(=O)CN(C)C(=O)[C@@H]1Cc1ccc(C(F)(F)F)cc1 [PP0375] ([NMeL]I[Aze][Sar][NPrPhe(4-CF3)][Sar][hPhe(3-Cl-4-CF3)][Pro(4,4-F2)][Ac5c][NMeGly(cPent)]D-NMe2; lactam N-11)	2300	B (a compound having 3 or more and less than 10 is denoted as B)	B (a compound having 3 or more and less than 10 is denoted as B)	–	–
CCO[C@@H]1C[C@H]2C(=O)NC3(CCC3)C(=O)N(C)[C@@H](C3CCCC3)C(=O)N(C)[C@H](C(=O)N3CCCC3)CC(=O)N(C)[C@@H](CC)C(=O)N[C@@H]([C@@H](C)CC)C(=O)N(C)CC(=O)N(C)[C@H]3C/C=C\CCN(C3=O)[C@@H](Cc3ccc(C(F)(F)F)cc3)C(=O)N(C)CC(=O)N[C@@H](CCc3cc(F)c(C(F)(F)F)c(F)c3)C(=O)N2C1 [PP1090, (2S,8S,12R,14S,20S,23S,27S,30S,36S,38Z)-20-cyclopentyl-8-[2-[3,5-difluoro-4-(trifluoromethyl)phenyl]ethyl]-12-ethoxy-27-ethyl-4,19,22,26,32,35-hexamethyl-30-[(1S)-1-methylpropyl]-23-(pyrrolidine-1-carbonyl)-2-[[4-(trifluoromethyl)phenyl]methyl]spiro[1,4,7,10,16,19,22,26,29,32,35-undecazatricyclo[34.5.1.0^10,14]dotetracont-38-ene-17,1′-cyclobutane]-3,6,9,15,18,21,25,28,31,34,42-undecone]	–	AA (a compound having 20 or more is denoted as AA)	A (a compound having 10 or more and less than 20 is denoted as A)	86	–
CCC[C@H]1C(=O)N[C@@H]([C@@H](C)CC)C(=O)N(C)CC(=O)N(C)[C@H]2C/C=C\CCN(C2=O)[C@@H](Cc2ccc(C(F)(F)F)cc2)C(=O)N(C)CC(=O)N[C@@H](CCc2ccc(C(F)(F)F)c(Cl)c2)C(=O)N2C[C@H](OCC)C[C@H]2C(=O)NC2(CC(C)(C)C2)C(=O)N(C)[C@@H](CC(C)(C)C)C(=O)N(C)[C@H](C(=O)N(C)C)CC(=O)N1C [PP2969]	73	–	–	–	NRAS/KRAS (ratio of KD value with respect to GDP-bound NRAS wild-type protein to KD value with respect to KRAS) ([2]; SPR KD ratio NRAS/KRAS, class symbols): AA (a compound having 20 or more is denoted as AA); HRAS/KRAS (ratio of KD value with respect to GDP-bound HRAS wild-type protein to KD value with respect to KRAS) ([3]; SPR KD ratio HRAS/KRAS, class symbols): A (a compound having 10 or more and less than 20 is denoted as A)
CCO[C@@H]1C[C@H]2C(=O)NC3(CC(C)(C)C3)C(=O)N(C)[C@@H](C(CC)CC)C(=O)N(C)[C@H](C(=O)N3CCCC3)CC(=O)N(C)[C@@H](COC)C(=O)N[C@@H]([C@@H](C)CC)C(=O)N(C)CC(=O)N(C)[C@H]3C/C=C\CCN(C3=O)[C@@H](Cc3ccc(C(F)(F)F)cc3)C(=O)N(C)CC(=O)N[C@@H](CCc3ccc(C(F)(F)F)c(OC)c3)C(=O)N2C1 [PP2159]	–	AA (a compound having 20 or more is denoted as AA)	A (a compound having 10 or more and less than 20 is denoted as A)	330	–
CC[C@H](C)[C@@H]1NC(=O)[C@H](CC2CC2)N(C)C(=O)C[C@@H](C(=O)N(CC)CC)N(C)C(=O)[C@H](C2CCCC2)N(C)C(=O)C2(CC(C)(C)C2)NC(=O)[C@@H]2C[C@@H](F)CN2C(=O)[C@H](CCc2cc(F)c(C(F)(F)F)c(F)c2)NC(=O)CN(C)C(=O)[C@H](Cc2ccc(C(F)(F)F)cc2)N2CC/C=C\C[C@@H](C2=O)N(C)C(=O)CN(C)C1=O [PP1571]	–	–	–	–	Kd [1, 7]: 150 pM; NRAS/KRAS (ratio of KD value for NRAS to KD value for KRAS) [2, 8]: A (a compound having 10 or more and less than 20 is denoted as A); HRAS/KRAS (ratio of KD value for HRAS to KD value for KRAS) [3, 9]: A (a compound having 10 or more and less than 20 is denoted as A)
CC[C@H](C)[C@@H]1NC(=O)[C@H](CC(C)C)N(C)C(=O)C[C@@H](C(=O)N2CCCCC2)N(C)C(=O)[C@H](C2CCCC2)N(C)C(=O)C2(CCCC2)NC(=O)[C@@H]2CCCN2C(=O)[C@H](CCc2cc(F)c(C(F)(F)F)c(F)c2)NC(=O)CN(C)C(=O)[C@H](Cc2ccc(C(F)(F)F)cc2)N2CCCCC[C@@H](C2=O)N(C)C(=O)CN(C)C1=O [PP0510]	12000	–	–	–	NRAS/KRAS (ratio of KD value with respect to NRAS to KD value with respect to KRAS) [2, 5]: B (a compound having 3 or more and less than 10 is denoted as B); HRAS/KRAS (ratio of KD value with respect to HRAS to KD value with respect to KRAS) [3, 6]: B (a compound having 3 or more and less than 10 is denoted as B)
CCO[C@@H]1C[C@H]2C(=O)NC3(CC(C)(C)C3)C(=O)N(C)[C@@H](C(CC)CC)C(=O)N(C)[C@H](C(=O)N(C)C)CC(=O)N(C)[C@@H](CC)C(=O)N[C@@H]([C@@H](C)CC)C(=O)N(C)CC(=O)N(C)[C@H]3C/C=C\CCN(C3=O)[C@@H](Cc3ccc(C)cc3)C(=O)N(C)CC(=O)N[C@@H](CCc3ccc(Cl)c(Cl)c3)C(=O)N2C1 [PP2188]	–	AA (a compound having 20 or more is denoted as AA)	A (a compound having 10 or more and less than 20 is denoted as A)	710	–
CCCN1C(=O)[C@@H]2CCN2C(=O)[C@H](C)N(C)C(=O)[C@H]([C@@H](C)CC)NC(=O)[C@H](CC(C)C)N(C)C(=O)C[C@@H](C(=O)N2CCOCC2)N(C)C(=O)[C@H](C2CCCC2)N(C)C(=O)C2(CCCC2)NC(=O)[C@@H]2CCCN2C(=O)[C@H](CCc2ccc(C(F)(F)F)c(Cl)c2)NC(=O)CN(C)C(=O)[C@@H]1Cc1ccccc1 [PP0216] ([NMeL]I[NMeA][Aze][X43][Sar][hPhe(3-Cl-4-CF3)]P[Ac5c][NMeGly(cPent)][NMeD]-Morpholide; lactam N-11)	280	C (A compound having a KD ratio of 0.1 or more and less than 3 is denoted as C)	B (a compound having 3 or more and less than 10 is denoted as B)	–	–
CC[C@H](C)[C@@H]1NC(=O)[C@H](C)N(C)C(=O)C[C@@H](C(=O)N2CCOCC2)N(C)C(=O)[C@H](C2CCCC2)N(C)C(=O)C2(CCCC2)NC(=O)[C@@H]2CCCN2C(=O)[C@H](CCc2ccc(C(F)(F)F)c(Cl)c2)NC(=O)CN(C)C(=O)[C@H](Cc2ccc(C)cc2)N(CC)C(=O)[C@@H]2CCN2C(=O)[C@H](C)N(C)C1=O [PP0007] ([NMeA]I[NMeA][Aze][NEtPhe(4-Me)][Sar][hPhe(3-Cl-4-CF3)]P[Ac5c][NMeGly(cPent)][NMeD]-Morpholide; lactam N-11)	74	C (A compound having a KD ratio of 0.1 or more and less than 3 is denoted as C)	C (A compound having a KD ratio of 0.1 or more and less than 3 is denoted as C)	–	–
CCC[C@H]1C(=O)N[C@@H]([C@@H](C)CC)C(=O)N(C)CC(=O)N(C)[C@H]2C/C=C\CCN(C2=O)[C@@H](Cc2ccc(C(F)(F)F)cc2)C(=O)N(C)CC(=O)N[C@@H](CCc2cc(F)c(C(F)(F)F)c(F)c2)C(=O)N2C[C@H](OCC)C[C@H]2C(=O)NC2(CCC2)C(=O)N(C)[C@@H](C2CCCC2)C(=O)N(C)[C@H](C(=O)N(CC)CC)CC(=O)N1C [PP1310, (2S,8S,12R,14S,20S,23S,27S,30S,36S,38Z)-20-cyclopentyl-8-[2-[3,5-difluoro-4-(trifluoromethyl)phenyl]ethyl]-12-ethoxy-N,N-diethyl-4,19,22,26,32,35-hexamethyl-30-[(1S)-1-methylpropyl]-3,6,9,15,18,21,25,28,31,34,42-undecaoxo-27-propyl-2-[[4-(trifluoromethyl)phenyl]methyl]spiro[1,4,7,10,16,19,22,26,29,32,35-undecazatricyclo[34.5.1.0^10,14]dotetracont-38-ene-17,1′-cyclobutane]-23-carboxamide]	–	–	–	–	Kd [1, 7]: 130 pM; NRAS/KRAS (ratio of KD value for NRAS to KD value for KRAS) [2, 8]: AA (a compound having 20 or more is denoted as AA); HRAS/KRAS (ratio of KD value for HRAS to KD value for KRAS) [3, 9]: A (a compound having 10 or more and less than 20 is denoted as A)
CCO[C@@H]1C[C@H]2C(=O)NC3(CCC3)C(=O)N(C)[C@@H](C3CCCC3)C(=O)N(C)[C@H](C(=O)N3CCCCC3)CC(=O)N(C)[C@H]3CCCCCCc4ccc(cc4)C[C@@H](C(=O)N(C)CC(=O)N[C@@H](CCc4ccc(C(F)(F)F)c(OC)c4)C(=O)N2C1)N1CC/C=C\C[C@@H](C1=O)N(C)C(=O)CN(C)C(=O)[C@H]([C@@H](C)CC)NC3=O [PP3033, (1S,7S,11R,13S,19S,22S,26S,29S,35S,37Z)-19-cyclopentyl-11-ethoxy-7-[2-[3-methoxy-4-(trifluoromethyl)phenyl]ethyl]-3,18,21,25,31,34-hexamethyl-29-[(1S)-1-methylpropyl]-22-(piperidine-1-carbonyl)spiro[3,6,9,15,18,21,25,28,31,34,41-undecazapentacyclo[24.15.11.2^43,46.1^35,41.0^9,13]pentapentaconta-37,43(54),44,46(53)-tetraene-16,1′-cyclobutane]-2,5,8,14,17,20,24,27,30,33,55-undecone]	–	A (a compound having 10 or more and less than 20 is denoted as A)	B (a compound having 3 or more and less than 10 is denoted as B)	180	–
